Measured values: ChEMBL document CHEMBL1158870, “Antitumor agents. 180. Chemical Studies and cytotoxic evaluation of cumingianosides and cumindysoside A, antileukemic triterpene glucosides with a 14,18-cycloapotirucallane skeleton” (1997)

Experiments:
CCRF-CEM = assay: Cytotoxicity against human CCRF-CEM cells by SRB assay; format: functional
[1] = Cytotoxicity against human HL60(TB) cells by SRB assay; format: functional, HL-60(TB); conditions: HL-60
K562 = assay: Cytotoxicity against human K562 cells by SRB assay; format: functional
MOLT-4 = assay: Cytotoxicity against human MOLT4 cells by SRB assay; format: functional
RPMI-8226 = assay: Cytotoxicity against human RPMI8226 cells by SRB assay; format: functional
SR = assay: Cytotoxicity against human SR cells by SRB assay; format: functional
A549 = assay: Cytotoxicity against human A549 cells by SRB assay; format: functional
EKVX = assay: Cytotoxicity against human EKVX cells by SRB assay; format: functional
HOP-62 = assay: Cytotoxicity against human HOP62 cells by SRB assay; format: functional
HOP-92 = assay: Cytotoxicity against human HOP92 cells by SRB assay; format: functional
NCI-H226 = assay: Cytotoxicity against human NCI-H226 cells by SRB assay; format: functional
NCI-H23 = assay: Cytotoxicity against human NCI-H23 cells by SRB assay; format: functional
NCI-H322M = assay: Cytotoxicity against human NCI-H322M cells by SRB assay; format: functional
NCI-H460 = assay: Cytotoxicity against human NCI-H460 cells by SRB assay; format: functional
NCI-H522 = assay: Cytotoxicity against human NCI-H522 cells by SRB assay; format: functional
COLO 205 = assay: Cytotoxicity against human COLO205 cells by SRB assay; format: functional
HCC 2998 = assay: Cytotoxicity against human HCC2998 cells by SRB assay; format: functional
HCT-116 = assay: Cytotoxicity against human HCT116 cells by SRB assay; format: functional
HCT-15 = assay: Cytotoxicity against human HCT15 cells by SRB assay; format: functional
HT-29 = assay: Cytotoxicity against human HT29 cells by SRB assay; format: functional
KM12 = assay: Cytotoxicity against human KM12 cells by SRB assay; format: functional
SW-620 = assay: Cytotoxicity against human SW620 cells by SRB assay; format: functional
SF-268 = assay: Cytotoxicity against human SF268 cells by SRB assay; format: functional
SF-295 = assay: Cytotoxicity against human SF295 cells by SRB assay; format: functional
SNB-19 = assay: Cytotoxicity against human SNB19 cells by SRB assay; format: functional
SNB-75 = assay: Cytotoxicity against human SNB75 cells by SRB assay; format: functional
U-251 = assay: Cytotoxicity against human U251 cells by SRB assay; format: functional
LOX IMVI = assay: Cytotoxicity against human LOXIMVI cells by SRB assay; format: functional
Malme-3M = assay: Cytotoxicity against human MALME-3M cells by SRB assay; format: functional
M14 = assay: Cytotoxicity against human M14 cells by SRB assay; format: functional
SK-MEL-2 = assay: Cytotoxicity against human SK-MEL-2 cells by SRB assay; format: functional
SK-MEL-28 = assay: Cytotoxicity against human SK-MEL-28 cells by SRB assay; format: functional
SK-MEL-5 = assay: Cytotoxicity against human SK-MEL-5 cells by SRB assay; format: functional
UACC-257 = assay: Cytotoxicity against human UACC257 cells by SRB assay; format: functional
UACC-62 = assay: Cytotoxicity against human UACC62 cells by SRB assay; format: functional
IGROV-1 = assay: Cytotoxicity against human IGROV1 cells by SRB assay; format: functional
OVCAR-3 = assay: Cytotoxicity against human OVCAR-3 cells by SRB assay; format: functional
OVCAR-4 = assay: Cytotoxicity against human OVCAR4 cells by SRB assay; format: functional
OVCAR-5 = assay: Cytotoxicity against human OVCAR5 cells by SRB assay; format: functional
OVCAR-8 = assay: Cytotoxicity against human OVCAR8 cells by SRB assay; format: functional
SK-OV-3 = assay: Cytotoxicity against human SKOV3 cells by SRB assay; format: functional
[2] = Cytotoxicity against human 786-O cells by SRB assay; format: functional; conditions: 786-0
A498 = assay: Cytotoxicity against human A498 cells by SRB assay; format: functional
ACHN = assay: Cytotoxicity against human ACHN cells by SRB assay; format: functional
CAKI-1 = assay: Cytotoxicity against human Caki1 cells by SRB assay; format: functional
RXF 393 = assay: Cytotoxicity against human RXF393 cells by SRB assay; format: functional
SN12C = assay: Cytotoxicity against human SN12C cells by SRB assay; format: functional
UO-31 = assay: Cytotoxicity against human UO31 cells by SRB assay; format: functional
PC-3 = assay: Cytotoxicity against human PC3 cells by SRB assay; format: functional
DU-145 = assay: Cytotoxicity against human DU145 cells by SRB assay; format: functional
MCF7 = assay: Cytotoxicity against human MCF7 cells by SRB assay; format: functional
[3] = Cytotoxicity against human MCF7/ADR cells by SRB assay; format: functional; conditions: NCI/ADR-RES
MDA-MB-231 = assay: Cytotoxicity against human MDA-MB-231 cells by SRB assay; format: functional
[4] = Cytotoxicity against human Hs 578T cells by SRB assay; format: functional
MDA-MB-435 = assay: Cytotoxicity against human MDA-MB-435 cells by SRB assay; format: functional
MDA-N = assay: Cytotoxicity against human MDA-N cells by SRB assay; format: functional
BT-549 = assay: Cytotoxicity against human BT549 cells by SRB assay; format: functional
T47D = assay: Cytotoxicity against human T47D cells by SRB assay; format: functional
Leukemia cell = assay: Cytotoxicity against human Leukemia cells by SRB assay; format: functional
NSCLC = assay: Cytotoxicity against human NSCLC cells by SRB assay; format: functional
[5] = Cytotoxicity against human Colon cancer cells by SRB assay; format: functional; conditions: Cancer cell lines
[6] = Cytotoxicity against human CNS cancer cells by SRB assay; format: functional; conditions: Cancer cell lines
[7] = Cytotoxicity against human melanoma cells by SRB assay; format: functional; conditions: Melanoma cell
[8] = Cytotoxicity against human ovarian cancer cells by SRB assay; format: functional; conditions: Cancer cell lines
[9] = Cytotoxicity against human prostate cancer cells by SRB assay; format: functional; conditions: Cancer cell lines
[10] = Cytotoxicity against human breast cancer cells by SRB assay; format: functional; conditions: Cancer cell lines
[11] = Cytotoxicity against human renal cancer cells by SRB assay; format: functional; conditions: Cancer cell lines

## COC(C)(C)[C@@H](O)[C@H]1C[C@H](C)[C@@]2(CC[C@]3(C)[C@@H]2CC[C@@H]2[C@@]4(C)CC[C@@H](OC(C)=O)C(C)(C)[C@@H]4C[C@@H](O[C@@H]4O[C@H](COC(C)=O)[C@@H](O)[C@H](O)[C@H]4O)[C@]23C)O1
CCRF-CEM
  GI50: 3.09 µM
[1]
  GI50: 2.34 µM
K562
  GI50: 3.09 µM
MOLT-4
  GI50: 2.29 µM
RPMI-8226
  GI50: 2.4 µM
SR
  GI50: 2.19 µM
A549
  GI50: 3.89 µM
EKVX
  GI50: 5.5 µM
HOP-62
  GI50: 11.5 µM
HOP-92
  GI50: 12.9 µM
NCI-H226
  GI50: 4.79 µM
NCI-H23
  GI50: 9.33 µM
NCI-H322M
  GI50: 1.91 µM
NCI-H460
  GI50: 3.8 µM
NCI-H522
  GI50: 4.57 µM
COLO 205
  GI50: 2.14 µM
  TGI: 4.7 µM
HCC 2998
  GI50: 0.204 µM
  TGI: 1.8 µM
HCT-116
  GI50: 2.69 µM
  TGI: 10 µM
HCT-15
  GI50: 2.4 µM
  TGI: 5.6 µM
HT-29
  GI50: 1.86 µM
  TGI: 4 µM
KM12
  GI50: 1.32 µM
  TGI: 2 µM
SW-620
  GI50: 6.46 µM
  TGI: 19.8 µM
SF-268
  GI50: 6.03 µM
SF-295
  GI50: 4.37 µM
SNB-19
  GI50: 10 µM
SNB-75
  GI50: 3.55 µM
U-251
  GI50: 5.37 µM
LOX IMVI
  GI50: 4.79 µM
Malme-3M
  GI50: 11.2 µM
M14
  GI50: 4.47 µM
SK-MEL-2
  GI50: 6.17 µM
SK-MEL-28
  GI50: 6.31 µM
SK-MEL-5
  GI50: 8.32 µM
UACC-257
  GI50: 5.89 µM
UACC-62
  GI50: 5.25 µM
IGROV-1
  GI50: 4.37 µM
OVCAR-3
  GI50: 4.79 µM
OVCAR-4
  GI50: 2.95 µM
OVCAR-5
  GI50: 3.16 µM
OVCAR-8
  GI50: 5.25 µM
SK-OV-3
  GI50: 4.79 µM
[2]
  GI50: 5.25 µM
A498
  GI50: 13.2 µM
ACHN
  GI50: 5.25 µM
CAKI-1
  GI50: 5.37 µM
RXF 393
  GI50: 3.16 µM
SN12C
  GI50: 4.17 µM
UO-31
  GI50: 5.25 µM
PC-3
  GI50: 2.82 µM
DU-145
  GI50: 4.47 µM
MCF7
  GI50: 2.14 µM
[3]
  GI50: 7.41 µM
MDA-MB-231
  GI50: 11 µM
[4]
  GI50: 4.07 µM
MDA-MB-435
  GI50: 3.63 µM
MDA-N
  GI50: 5.25 µM
BT-549
  GI50: 12.6 µM
T47D
  GI50: 4.17 µM
Leukemia cell
  TGI: 32.1 µM
NSCLC
  TGI: 17.8 µM
[5]
  TGI: 6.9 µM
[6]
  TGI: 18.7 µM
[7]
  TGI: 20.2 µM
[8]
  TGI: 15.8 µM
[9]
  TGI: 13.1 µM
[10]
  TGI: 18.6 µM
[11]
  TGI: 17.9 µM

## COC(C)(C)[C@@H](O)[C@H](O)C[C@H](C)C1=C2CC[C@@H]3[C@@]4(C)CC[C@@H](OC(C)=O)C(C)(C)[C@@H]4C[C@@H](O[C@@H]4O[C@H](COC(C)=O)[C@@H](O)[C@H](O)[C@H]4O)[C@@]3(C)[C@]2(C)CC1
CCRF-CEM
  GI50: 5.37 µM
[1]
  GI50: 3.63 µM
K562
  GI50: 6.03 µM
MOLT-4
  GI50: 5.13 µM
RPMI-8226
  GI50: 4.17 µM
SR
  GI50: 3.09 µM
A549
  GI50: 7.76 µM
EKVX
  GI50: 12.9 µM
HOP-62
  GI50: 14.5 µM
HOP-92
  GI50: 12.9 µM
NCI-H226
  GI50: 13.2 µM
NCI-H23
  GI50: 14.5 µM
NCI-H322M
  GI50: 12.9 µM
NCI-H460
  GI50: 9.12 µM
NCI-H522
  GI50: 12.3 µM
COLO 205
  GI50: 10.7 µM
  TGI: 22.8 µM
HCC 2998
  GI50: 3.98 µM
  TGI: 13.4 µM
HCT-116
  GI50: 6.03 µM
  TGI: 19.2 µM
HCT-15
  GI50: 11 µM
  TGI: 23.8 µM
HT-29
  GI50: 5.13 µM
  TGI: 16.9 µM
KM12
  GI50: 3.55 µM
  TGI: 18.9 µM
SW-620
  GI50: 15.8 µM
  TGI: 30.1 µM
SF-268
  GI50: 10.2 µM
SF-295
  GI50: 11.5 µM
SNB-19
  GI50: 12.3 µM
SNB-75
  GI50: 3.89 µM
U-251
  GI50: 5.37 µM
LOX IMVI
  GI50: 6.31 µM
Malme-3M
  GI50: 15.1 µM
M14
  GI50: 12.3 µM
SK-MEL-2
  GI50: 13.2 µM
SK-MEL-28
  GI50: 11.7 µM
SK-MEL-5
  GI50: 14.5 µM
UACC-257
  GI50: 12.6 µM
UACC-62
  GI50: 8.71 µM
IGROV-1
  GI50: 13.2 µM
OVCAR-3
  GI50: 7.41 µM
OVCAR-4
  GI50: 10.7 µM
OVCAR-5
  GI50: 14.8 µM
OVCAR-8
  GI50: 12.9 µM
SK-OV-3
  GI50: 15.1 µM
[2]
  GI50: 14.5 µM
A498
  GI50: 14.1 µM
ACHN
  GI50: 10.5 µM
CAKI-1
  GI50: 4.07 µM
RXF 393
  GI50: 6.92 µM
SN12C
  GI50: 13.5 µM
UO-31
  GI50: 13.5 µM
PC-3
  GI50: 5.62 µM
DU-145
  GI50: 15.1 µM
MCF7
  GI50: 2.63 µM
[3]
  GI50: 15.1 µM
MDA-MB-231
  GI50: 11.5 µM
[4]
  GI50: 11.7 µM
MDA-MB-435
  GI50: 12.3 µM
MDA-N
  GI50: 11.7 µM
BT-549
  GI50: 15.1 µM
T47D
  GI50: 12.6 µM
Leukemia cell
  TGI: 20.9 µM
NSCLC
  TGI: 25.6 µM
[5]
  TGI: 20.7 µM
[6]
  TGI: 23.8 µM
[7]
  TGI: 29.9 µM
[8]
  TGI: 25.6 µM
[9]
  TGI: 23.5 µM
[10]
  TGI: 24.8 µM
[11]
  TGI: 23.6 µM
